Test results from article PMC12277872, “Design, Synthesis, In Vitro, and In Silico Studies of 5‐(Diethylamino)‐2‐Formylphenyl Naphthalene‐2‐Sulfonate Based Thiosemicarbazones as Potent Anti‐Alzheimer Agents” (Archiv Der Pharmazie, 2025).

Experiments:
[1] = biological target: T1, AChE from Electrophorus electricus (electric eel) (Electrophorus electricus, UniProt O42275); assay: biochemical; conditions: for IC50: AChI substrate, DTNB, 412 nm, Tris/HCl pH 8.0; for Ki: read-out: K i (nM) AChE
T1 construct: purchased Sigma Aldrich C3389
T1 sequence (O42275 24-633): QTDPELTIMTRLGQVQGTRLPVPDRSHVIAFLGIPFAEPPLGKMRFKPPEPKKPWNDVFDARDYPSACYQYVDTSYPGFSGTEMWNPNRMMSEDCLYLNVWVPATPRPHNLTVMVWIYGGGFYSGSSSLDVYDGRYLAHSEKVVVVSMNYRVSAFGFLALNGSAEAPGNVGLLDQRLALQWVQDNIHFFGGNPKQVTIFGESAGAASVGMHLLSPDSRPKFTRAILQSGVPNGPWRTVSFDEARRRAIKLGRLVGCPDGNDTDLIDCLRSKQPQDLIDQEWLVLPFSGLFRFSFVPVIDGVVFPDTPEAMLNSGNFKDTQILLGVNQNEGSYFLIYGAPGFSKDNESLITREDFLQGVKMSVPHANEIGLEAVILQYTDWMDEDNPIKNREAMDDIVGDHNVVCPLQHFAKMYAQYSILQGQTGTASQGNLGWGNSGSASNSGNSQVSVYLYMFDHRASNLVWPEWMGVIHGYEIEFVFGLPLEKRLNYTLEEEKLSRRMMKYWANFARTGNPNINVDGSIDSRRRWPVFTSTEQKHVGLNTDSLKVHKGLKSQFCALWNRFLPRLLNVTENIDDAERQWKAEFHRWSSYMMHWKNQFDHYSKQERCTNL
Method: Both […] (AChI) and butyrylcholine iodide (BChI) were used as substrates for the enzymatic hydrolysis reactions, with 5,5′‐dithiobis(2‐nitrobenzoic acid) (DTNB) serving as a common reagent for detecting the activities of AChE and BChE. The assay was conducted: 1 mL of 1.0 M Tris/HCl buffer (pH 8.0) was mixed with 10 μL of the sample solution in deionized water. To this mixture, 50 μL of AChE or BChE enzyme solution was added, and the reaction was incubated at room temperature for 10 min. After incubation, 50 μL of DTNB (0.5 mM) was introduced, followed by the addition of 50 μL of either AChI or BChI (10 mM), initiating the enzymatic reaction. […] This color change is due to the reaction of DTNB with thiocholine released during the hydrolysis of AChI or BChI. For every inhibitor that was utilized, IC50 and K i values were determined. In this study, C7512‐ BChE from equine serum and C3389‐ AChE from Electrophorus electricus (electric eel) were purchased from Sigma Aldrich.

BChE from equine serum = biological target: T2, BChE from equine serum (Equus caballus, UniProt P81908); assay: biochemical; conditions: for IC50: BChI substrate, DTNB, 412 nm, Tris/HCl pH 8.0; for Ki: read-out: K i (nM) BChE
T2 construct: C7512‐ BChE from equine serum; purchased Sigma Aldrich C7512; host or cells: equine serum
T2 sequence (P81908 whole entry): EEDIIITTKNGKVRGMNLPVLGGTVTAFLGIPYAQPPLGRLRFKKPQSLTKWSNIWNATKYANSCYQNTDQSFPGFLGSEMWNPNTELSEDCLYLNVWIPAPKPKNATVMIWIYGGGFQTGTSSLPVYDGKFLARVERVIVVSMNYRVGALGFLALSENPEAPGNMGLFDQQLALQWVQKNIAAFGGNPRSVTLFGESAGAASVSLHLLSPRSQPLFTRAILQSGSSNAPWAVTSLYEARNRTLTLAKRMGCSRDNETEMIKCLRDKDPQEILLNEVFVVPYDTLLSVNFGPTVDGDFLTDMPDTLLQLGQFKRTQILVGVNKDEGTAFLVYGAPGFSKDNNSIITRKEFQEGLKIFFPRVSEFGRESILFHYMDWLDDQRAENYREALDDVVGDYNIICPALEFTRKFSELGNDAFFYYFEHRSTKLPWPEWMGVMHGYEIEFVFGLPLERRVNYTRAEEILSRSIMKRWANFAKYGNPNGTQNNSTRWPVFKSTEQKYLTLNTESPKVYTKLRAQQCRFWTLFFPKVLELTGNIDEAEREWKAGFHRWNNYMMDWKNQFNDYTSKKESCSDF
Method: Both […] (AChI) and butyrylcholine iodide (BChI) were used as substrates for the enzymatic hydrolysis reactions, with 5,5′‐dithiobis(2‐nitrobenzoic acid) (DTNB) serving as a common reagent for detecting the activities of AChE and BChE. The assay was conducted: 1 mL of 1.0 M Tris/HCl buffer (pH 8.0) was mixed with 10 μL of the sample solution in deionized water. To this mixture, 50 μL of AChE or BChE enzyme solution was added, and the reaction was incubated at room temperature for 10 min. After incubation, 50 μL of DTNB (0.5 mM) was introduced, followed by the addition of 50 μL of either AChI or BChI (10 mM), initiating the enzymatic reaction. The hydrolysis of the substrates was monitored spectrophotometrically by measuring the absorbance at 412 nm, corresponding to the formation of the yellow‐colored 5‐thio‐2‐nitrobenzoate anion. This color change is due to the reaction of DTNB with thiocholine released during the hydrolysis of AChI or BChI. For every inhibitor that was utilized, IC50 and K i values were determined. In this study, C7512‐ BChE from equine serum and C3389‐ AChE from Electrophorus electricus (electric eel) were purchased from Sigma Aldrich.

hMAO‐A = biological target: T3, hMAO‐A (Homo sapiens, UniProt P21397); assay: In vitro fluorometric MAO-A inhibition assay (tyramine substrate, horseradish peroxidase coupling); type: biochemical
T3 construct: purchased Sigma Aldrich M7316
T3 sequence (P21397 1-527): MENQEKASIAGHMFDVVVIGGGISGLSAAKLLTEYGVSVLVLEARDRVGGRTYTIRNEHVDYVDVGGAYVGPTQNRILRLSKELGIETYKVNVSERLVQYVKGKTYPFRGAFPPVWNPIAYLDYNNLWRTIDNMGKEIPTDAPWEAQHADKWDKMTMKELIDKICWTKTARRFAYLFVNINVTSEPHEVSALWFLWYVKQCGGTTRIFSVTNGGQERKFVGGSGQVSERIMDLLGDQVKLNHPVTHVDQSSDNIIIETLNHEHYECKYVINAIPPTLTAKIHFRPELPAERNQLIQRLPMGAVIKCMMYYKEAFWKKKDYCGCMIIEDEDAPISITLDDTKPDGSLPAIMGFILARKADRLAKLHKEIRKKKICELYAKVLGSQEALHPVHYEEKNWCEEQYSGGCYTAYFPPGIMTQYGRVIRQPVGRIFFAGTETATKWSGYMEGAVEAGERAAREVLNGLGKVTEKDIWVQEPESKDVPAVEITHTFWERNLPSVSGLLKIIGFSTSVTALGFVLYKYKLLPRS
Method: (§1) The in vitro fluorometric technique was used to assess each newly generated substance's inhibitory activity against hMAO‐A and hMAO‐B. In a horseradish peroxidase coupling reaction, the oxired reagent (10‐acetyl‐3,7‐dihydroxyphenoxazine) detects H2O2, a result of the oxidative deamination of tyramine, which is utilized as an MAO substrate. The test was carried out in two steps. First, each compound's concentrations of 10^–3 and 10^–4 M were investigated. […] These parameters of this study were made as in previous studies. We purchased these two enzymes from Sigma Aldrich (M7316‐Monoamine Oxidase A human and M7441‐ […]).

hMAO‐B = biological target: T4, hMAO‐B (Homo sapiens, UniProt P27338); assay: In vitro fluorometric MAO-B inhibition assay (tyramine substrate, horseradish peroxidase coupling); type: biochemical
T4 construct: purchased Sigma Aldrich M7441
T4 sequence (P27338 1-520): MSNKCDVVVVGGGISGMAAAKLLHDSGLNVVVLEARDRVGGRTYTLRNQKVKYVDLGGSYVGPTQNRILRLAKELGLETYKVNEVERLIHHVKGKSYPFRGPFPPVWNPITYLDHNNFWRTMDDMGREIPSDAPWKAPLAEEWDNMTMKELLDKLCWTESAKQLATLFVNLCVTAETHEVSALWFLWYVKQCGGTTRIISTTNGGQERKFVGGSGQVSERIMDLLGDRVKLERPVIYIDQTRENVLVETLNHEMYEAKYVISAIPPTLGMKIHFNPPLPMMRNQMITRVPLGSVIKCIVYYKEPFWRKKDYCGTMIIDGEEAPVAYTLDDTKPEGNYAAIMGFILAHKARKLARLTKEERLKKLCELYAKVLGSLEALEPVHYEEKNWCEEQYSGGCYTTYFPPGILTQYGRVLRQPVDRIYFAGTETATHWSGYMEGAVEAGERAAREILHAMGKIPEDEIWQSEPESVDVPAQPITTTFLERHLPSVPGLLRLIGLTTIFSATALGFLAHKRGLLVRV
Method: as §1

Structure (SMILES) | IC50 [1] [nM] | Ki [1] [nM] | IC50 (BChE from equine serum) [nM] | Ki (BChE from equine serum) [nM] | IC50 (hMAO‐A) [nM] | IC50 (hMAO‐B) [nM]
CCN(CC)c1ccc(/C=N/NC(=S)Nc2c(C)cccc2C)c(OS(=O)(=O)c2ccc3ccccc3c2)c1 [Compound 5j, (E)‐5‐(Diethylamino)‐2‐({2‐[(2,6‐dimethylphenyl)carbamothioyl]hydrazono}methyl)phenyl naphthalene‐2‐sulfonate] | 40.6 ± 2.77 | 36.5 ± 5.23 | 265 ± 7.9 | 228 ± 12.4 | 137 ± 6.21 | 395 ± 8.35
CCN(CC)c1ccc(/C=N/NC(=S)Nc2ccccc2C)c(OS(=O)(=O)c2ccc3ccccc3c2)c1 [Compound 5r, (E)‐5‐(Diethylamino)‐2‐{[2‐(o‐tolylcarbamothioyl)hydrazono]methyl}phenyl naphthalene‐2‐sulfonate] | 27.4 ± 2.42 | 21.2 ± 1.05 | 294 ± 7.14 | 249 ± 15.3 | 143 ± 6.78 | 495 ± 8.36
CCN(CC)c1ccc(/C=N/NC(=S)Nc2cccc([N+](=O)[O-])c2)c(OS(=O)(=O)c2ccc3ccccc3c2)c1 [Compound 5o, (E)‐5‐(Diethylamino)‐2‐({2‐[(3‐nitrophenyl)carbamothioyl]hydrazono}methyl)phenyl naphthalene‐2‐sulfonate] | 18.9 ± 1.33 | 14.2 ± 2.32 | 192 ± 6.36 | 160 ± 9.01 | 123 ± 7.01 | 267 ± 6.35
CCN(CC)c1ccc(/C=N/NC(=S)Nc2cccc(Cl)c2Cl)c(OS(=O)(=O)c2ccc3ccccc3c2)c1 [Compound 5a, (E)‐2‐({2‐[(2,3‐Dichlorophenyl)carbamothioyl]hydrazono}methyl)‐5‐(diethylamino)phenyl naphthalene‐2‐sulfonate] | 14.9 ± 1.54 | 11.4 ± 3.06 | 125 ± 9.13 | 101 ± 22.4 | 104 ± 4.58 | 391 ± 9.04
CCN(CC)c1ccc(/C=N/NC(=S)Nc2c(Cl)cccc2Cl)c(OS(=O)(=O)c2ccc3ccccc3c2)c1 [Compound 5u, (E)‐2‐({2‐[(2,6‐Dichlorophenyl)carbamothioyl]hydrazono}methyl)‐5‐(diethylamino)phenyl naphthalene‐2‐sulfonate] | 12.9 ± 1.02 | 9.82 ± 1.76 | 148 ± 7.35 | 112 ± 7.61 | 96.2 ± 5.77 | 209 ± 5.84
CCN(CC)c1ccc(/C=N/NC(=S)NC)c(OS(=O)(=O)c2ccc3ccccc3c2)c1 [Compound 5m, (E)‐5‐(Diethylamino)‐2‐{[2‐(methylcarbamothioyl)hydrazono]methyl}phenyl naphthalene‐2‐sulfonate] | 38.5 ± 3.21 | 30.2 ± 5.02 | 214 ± 7.13 | 193 ± 11.6 | 132 ± 4.96 | 369 ± 11.2
